pKi: −log10 of the molar value. Calls of active or inactive are those of the source. No cut-off for these calls is given here.
Assays:
[1] = molecular target: T1, Pyridoxine-5'-phosphate oxidase (Mus musculus) (UniProt Q91XF0); assay: Inhibition of pyridoxine phosphate oxidase in mouse TA3 cells assessed as inhibition of 1 x 10^-7 M pyridoxal-induced cell growth at 10^-4 M; assay type: cell-based
T1 sequence (whole entry): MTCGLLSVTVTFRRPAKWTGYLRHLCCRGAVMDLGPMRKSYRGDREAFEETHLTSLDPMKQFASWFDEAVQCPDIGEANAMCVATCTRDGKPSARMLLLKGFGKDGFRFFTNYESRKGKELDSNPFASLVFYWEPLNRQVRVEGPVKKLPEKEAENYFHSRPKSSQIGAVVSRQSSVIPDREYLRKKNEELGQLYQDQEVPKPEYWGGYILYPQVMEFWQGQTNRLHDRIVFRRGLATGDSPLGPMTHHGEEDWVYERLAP

[2] = molecular target: T1, Pyridoxine-5'-phosphate oxidase (Mus musculus); assay: Inhibition of pyridoxine phosphate oxidase in mouse TA3 cells assessed as inhibition of 1 x 10^-7 M pyridoxal-induced cell growth; assay type: cell-based
[3] = molecular target: T2, Pyridoxine-5'-phosphate oxidase (Homo sapiens, UniProt Q9NVS9); assay: Non-competitive inhibition of pyridoxine phosphate oxidase (unknown origin) assessed as oxidation of pyridoxol 5'-phosphate by Lineweaver-Burk plot analysis
T2 sequence (Q9NVS9 whole entry): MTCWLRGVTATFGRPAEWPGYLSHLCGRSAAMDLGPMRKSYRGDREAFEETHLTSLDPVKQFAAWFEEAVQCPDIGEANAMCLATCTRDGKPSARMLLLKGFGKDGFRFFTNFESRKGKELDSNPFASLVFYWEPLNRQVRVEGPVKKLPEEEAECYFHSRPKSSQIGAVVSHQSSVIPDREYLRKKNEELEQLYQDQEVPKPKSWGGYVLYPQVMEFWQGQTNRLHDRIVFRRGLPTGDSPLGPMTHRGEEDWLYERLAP

[4] = molecular target: T1, Pyridoxine-5'-phosphate oxidase (Mus musculus); assay: Inhibition of pyridoxine phosphate oxidase in mouse TA3 cells assessed as inhibition of 10^-5 M pyridoxal-induced cell growth; assay type: cell-based
[5] = molecular target: T3, Pyridoxine-5'-phosphate oxidase (Homo sapiens) (UniProt Q9NVS9); assay: Competitive inhibition of pyridoxine phosphate oxidase (unknown origin) assessed as oxidation of pyridoxol 5'-phosphate by Lineweaver-Burk plot analysis
T3 sequence (whole entry): T2 sequence (Q9NVS9 whole entry)

Pyridoxal kinase [6] = molecular target: T4, Pyridoxal kinase (Homo sapiens, UniProt O00764); assay: Competitive inhibition of pyridoxal phosphokinase (unknown origin)
T4 sequence (O00764 whole entry): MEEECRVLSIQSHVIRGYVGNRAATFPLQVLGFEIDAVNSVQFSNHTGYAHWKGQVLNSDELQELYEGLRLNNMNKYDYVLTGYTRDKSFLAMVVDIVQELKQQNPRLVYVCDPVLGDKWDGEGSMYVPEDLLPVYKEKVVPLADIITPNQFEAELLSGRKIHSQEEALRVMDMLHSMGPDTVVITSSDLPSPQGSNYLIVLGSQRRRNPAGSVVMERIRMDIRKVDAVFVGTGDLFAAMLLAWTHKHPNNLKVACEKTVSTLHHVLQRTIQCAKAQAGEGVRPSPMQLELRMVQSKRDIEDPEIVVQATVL

Pyridoxal kinase [7] = molecular target: T4, Pyridoxal kinase; assay: Non-competitive inhibition of pyridoxal phosphokinase (unknown origin)

Row | ID50 [2] | Structure (SMILES) | other results
1 | 3.8 µM | C#Cc1c(COP(=O)(O)O)cnc(C)c1O | pKi [3]: 6.26
2 | 0.0025 µM | C=Cc1c(CO)cnc(C)c1O | growth inhibition (GI) [4]: inactive; inhibition [5]: Active; pKi (Pyridoxal kinase [6]): 4.65
3 | 8 µM | C#Cc1c(CO)cnc(C)c1O | ID50 [4]: 9 ×10⁻⁵ M; pKi (Pyridoxal kinase [7]): 3.90
4 | 6.8 ×10⁻⁸ M | Cc1ncc(CO)c(C)c1O | growth inhibition (GI) [4]: inactive

The next lines start with the compound.

Row | Structure (SMILES) | ID50 [2] | other results
5 | CC(=O)c1c(CO)cnc(C)c1O |  | inhibition [1]: inactive
6 | CC/C=C/c1c(COCc2ccccc2)cnc(C)c1OCc1ccccc1 | 1.5 ×10⁻⁵ M | 
7 | Cc1ncc(CO)c(/C=C/Br)c1O | 1.2 ×10⁻⁵ M | 
8 | Cc1ncc(COCc2ccccc2)c(/C=C/Cl)c1OCc1ccccc1 | 3 µM | 
9 | C=C(Cl)c1c(CO)cnc(C)c1O | 9.5 µM | 
10 | C=C/C=C/c1c(COCc2ccccc2)cnc(C)c1OCc1ccccc1 | 1.5 ×10⁻⁵ M | 

— ChEMBL document CHEMBL3272067, “4-Halovinyl- and 4-ethynyl-4-deformylpyridoxal derivatives and related analogues as potentially irreversible antagonists of vitamin B6” (J Med Chem, 1977)
